The nature of this test: The polymerization of melanin (melanin pellet, absorbance at 400 nm; light microscope). The test is classed as biochemical. The settings on record: 0.025 mg/ml melanin treated with 50 μM peptide for 24 h. As for the experimental part:
0.025 mg/ml melanin was treated with 50 μM peptide for 24 h. Data are represented as the means±SD from three independent experiments. ***p<0.001.
0.025 mg/ml melanin were treated with 50 μM peptides for 24 h, and then centrifuged at 10,000 g for 5 min. The supernatant was removed from the tube, leaving only the melanin pellet. The polymerization of melanin was quantified after boiling in 1 M NaOH for 1 hour and the absorbance was measured spectrophotometrically at 400 nm.

Turning to CTISQPEWFKCRR [SEQ ID NO: 3], the melanin polymerization entry is listed as “did not show effects on melanin polymerization”.
The value for RMKKLGAPSI [SEQ ID NO: 15] was “did not show effects on melanin polymerization”; that for APRKNVRWCTISQ [SEQ ID NO: 2] was “did not show effects on melanin polymerization”.

(Values after patent US20210214405A1, “PEPTIDE, METHOD AND COMPOSITION FOR MELANIN POLYMERIZATION AND HAIR DARKENING” (Renorigin Innovation Institute Co., Ltd., priority 2020, published 2021).)
